The text below walks through data of publication PMC4259018 (MedChemComm, 2014).

One assay has as its target mPTPB (Mycobacterium tuberculosis, UniProt I6WXK4). Briefly: mPTPB catalyzed para-nitrophenyl phosphate hydrolysis inhibition. In kind it is biochemical. To be noted: for activity at 100 μM: 100 μM compound.
Assay [1] deals with mPTPB transfected Raw264.7 cells. The assay is classed as cell-based. The following applies: 10 μM.
The subject of a further assay is human PTPs. Briefly: Specificity for mPTPB over panel of human PTPs. The following applies: mPTPB versus PTP1B, SHP2, SHP1, PTP-Meg2, CD45, PTPε, VHR, Laforin. The assay is classed as biochemical.

mPTPB, sequence (I6WXK4 whole entry, looked up): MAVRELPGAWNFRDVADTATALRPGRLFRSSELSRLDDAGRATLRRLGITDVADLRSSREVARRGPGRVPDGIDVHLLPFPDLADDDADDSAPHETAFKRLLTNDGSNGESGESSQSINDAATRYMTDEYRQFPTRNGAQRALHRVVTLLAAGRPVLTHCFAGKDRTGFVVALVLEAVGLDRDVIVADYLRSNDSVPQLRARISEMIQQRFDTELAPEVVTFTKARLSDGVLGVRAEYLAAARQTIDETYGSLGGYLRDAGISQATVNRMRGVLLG

Consider `O=C(O)c1cc2sc(Nc3ccccc3)nc2cc1O` [11a], for which the “fold more active than 11b” value on mPTPB is recorded as 3 fold. The “effects on Erk1/2 and Akt phosphorylation” value in assay [1] is reported as “has no such effects”.
Broadly, the IC50 is the point on the concentration scale where inhibition reaches its midpoint. Low values mean inhibition by little substance, high ones a need for much substance. As to `O=C(O)c1cc2[nH]c(-c3ccccc3)nc2cc1O` [compound 10], the IC50 against mPTPB lay in the range of 20 to 30 µM.
As to `O=C(O)c1cc2[nH]c(=O)oc2cc1O` [compound 6], at mPTPB (mPTPB), the “activity at 100 μM” value is on record as “did not exhibit activity”.
As to `O=C1COc2cc(O)c(C(=O)O)cc2N1` [compound 7], on mPTPB (mPTPB), the “activity at 100 μM” value is reported as “did not exhibit activity”.
For the compound `O=C(O)CN1CC(=O)Oc2cc(O)c(C(=O)O)cc21` [compound 8], the “activity at 100 μM” value at mPTPB (mPTPB) is “did not exhibit activity”.
By Ki is commonly meant the equilibrium dissociation constant of an inhibitor or competing ligand from its target. The low end stands for tighter binding, the high end for weaker binding. Take `O=C(O)c1cc2sc(Nc3cccc(Br)c3)nc2cc1O` [11h]: at mPTPB, the Ki came to 2.2 ± 0.1 µM and the “fold increase in potency in comparison to 11a” value amounted to 12 fold. In addition, at mPTPB (mPTPB, against pNPP), the mode of inhibition result was “noncompetitive inhibitor”. Moreover, the “fold improvement of salicylic acid mPTPB inhibitory activity” value at mPTPB (mPTPB, versus salicylic acid) is reported as 27,500 fold. In addition, in assay [1] (5 μM, dose dependent), the Akt phosphorylation entry is on record as “decreased” and the Erk1/2 phosphorylation entry was “increased”. The “fold preference for mPTPB against human PTPs” value in the assay with human PTPs is on record as “over 20 fold”.
`O=C(O)c1cc2nc(-c3ccccc3)oc2cc1O` [compound 9] returned an IC50 against mPTPB of 20 to 30 µM.
